Data: PubChem BioAssay AID2305 (GlaxoSmithKline (GSK), 2010)
pIC50: −log10 of the molar value.

Tested on: P. falciparum 3D7 growth, pLDH absorbance
Test: P. falciparum 3D7 growth inhibition, dose response, strain 3D7 (AID 2305)

Row | SMILES | pIC50
1 | O=C(NC1CCN(Cc2ccccc2)CC1)c1cc(C(=O)NC2CCN(Cc3ccccc3)CC2)cc(C(=O)NC2CCN(Cc3ccccc3)CC2)c1 | 5.98
2 | O=C(Nc1ccc2c(c1)CCN(C1CCC1)CC2)c1ccc(-c2cn3ccccc3n2)cc1 | 6.06
3 | O=C(Nc1ccccc1O)c1ccc(Oc2cccc(C(=O)Nc3ccccc3O)c2)cc1 | 6.10
4 | Cc1[nH]c(C)c(-c2ccc(Oc3ccc(Cl)cc3)c(Cl)c2)c(=O)c1Br | 6.31
5 | CCN(CC)CCCNC(=O)/C(=C/C=C/c1cc2cc(Cl)c(Cl)cc2[nH]1)OC | 5.94
6 | COc1ccc(-c2nc(NC(=O)CSc3ccccc3)sc2C)cc1 | 6.12
7 | Cc1cc(N)c2cc(NC(=O)c3cc4ccccc4s3)ccc2n1 | 6.96
8 | Cc1ccc(Cl)c2sc(N3CCN(C(=O)c4ccc([N+](=O)[O-])o4)CC3)nc12 | 6.49
9 | COCCNCc1ccc(-c2ccc(CN(C(=O)Nc3ccccc3)C3CCN(Cc4ccccc4)CC3)cc2)cc1 | 6.12
10 | CN(C)CC1CCCN1Cc1ccccc1-c1cnn(C)c(=O)c1Oc1cccc(C#N)c1 (configuration not stated) | 5.87
11 | OC(CNCCCc1ccccc1)c1cc(OCc2ccccc2)cc(OCc2ccccc2)c1 (configuration not stated) | 6.07
12 | O=C(NC1CC1)c1ccc(N2CCCC(COc3ccccc3F)C2)nc1 (configuration not stated) | 6.05
13 | CCOC(=O)c1ccc(NC(=O)Nc2ccc(-c3ccc(-c4nc5c(C)cccc5[nH]4)s3)cc2)cc1 | 6.70
14 | CN1CCN(CC(=O)Nc2ccc(-c3ccc(-c4nc5ccc(C(F)(F)F)cc5[nH]4)cc3)cc2)CC1 | 6.38
15 | CC(C)c1ccc(CN(C)CCCCNC(=O)c2ccc(NC(=O)c3ccc(Cl)cc3)cc2)cc1 | 6.00
16 | c1ccc(-c2cc(NCCCn3ccnc3)nc(-c3cccnc3)n2)cc1 | 6.01
17 | CC(C)(C)c1ccc(-c2cc(C(=O)N[C@@H](CO)C(=O)O)on2)cc1 (tested in a mixture with another compound) | 6.01
18 | Fc1cccc(COc2ccc(Nc3ncnc4sc(C#CCNC5CCCC5)cc34)cc2Cl)c1 | 6.11
19 | O=C(/C=C/c1ccc(Cl)c(Cl)c1)N1CCC(CN2CCC(c3c(-c4ccccc4)[nH]c4ccccc34)CC2)CC1 | 6.47
20 | C[C@@H]1CN(C(c2cccc(O)c2)c2cccc(C(=O)N(C)c3cccc(F)c3)c2)[C@@H](C)CN1C(c1cccc(O)c1)c1cccc(C(=O)N(C)c2cccc(F)c2)c1 (some centres not stated) | 6.04
21 | COc1ccc(NC(=O)C2c3ccccc3C(=O)N(C3CCCC3)C2c2cccs2)cc1 (configuration not stated) | 5.77
22 | COc1ccc(-c2nc3cccnc3n2CC(=O)Nc2cc(Cl)c(Cl)cc2Cl)c(OC)c1 | 6.14
23 | CC(C)N1CCN(C(=O)c2ccc(CN(C)CCCN3CCN(c4cccc(Cl)c4Cl)CC3)s2)CC1 | 6.00
24 | Nc1cccc(-c2ccc3ccnc(N)c3c2)c1 | 6.10
25 | [O-]c1n[n+](C2CCCCC2)no1 | 6.03

Row | SMILES | pIC50
26 | Cc1cccc(OCC(=O)Nc2cccc(NC(=O)COc3cccc(C)c3)n2)c1 | 6.17
27 | Cc1ccc(C(=O)Nc2ccc(Nc3ccnc4cc(-c5ccccn5)ccc34)cc2O)cc1 | 6.96
28 | c1cc(CNCC2CCCO2)cc(-c2ccc(-c3nc4ccccc4[nH]3)s2)c1 (configuration not stated) | 5.93
29 | COc1ccccc1CNC(=O)c1cc(OC)c(OC)cc1NC(=O)c1cccs1 | 5.84
30 | C=CCOc1ccc(CNC2CCN(Cc3ccccc3)CC2)cc1Br | 5.85
31 | Fc1ccc2[nH]c3c(NCCCN4CCOCC4)ncnc3c2c1 | 6.15
32 | COc1cccc(CNc2ncc(-c3ccsc3)c(-c3nccs3)n2)c1 | 6.38
33 | Cc1noc(-c2ccc(N3CCC(C(=O)N4CCN(C(C)C)CC4)CC3)cc2)n1 | 5.97
34 | CCC1=C[C@@H]2CN(C1)Cc1c([nH]c3ccccc13)[C@@](C(=O)OC)(c1cc3c(cc1OC)N(C)[C@H]1[C@@](O)(C(=O)OC)[C@H](O)[C@]4(CC)C=CCN5CC[C@]31[C@@H]54)C2 | 6.06
35 | CCOc1ccc(C(=O)N2CCOC(CCN3CCC(c4ccccc4)CC3)(c3ccc(Cl)c(Cl)c3)C2)cc1 (configuration not stated) | 6.07
36 | N#Cc1ccc(C(=O)Nc2ccc(-c3cccc(CN4CCCC4)c3)cc2)cc1 | 6.00
37 | CN1CCN(CCCNCc2ccc(Nc3nccc(Nc4ccc(Oc5ccccc5)cc4)n3)cc2)CC1 | 6.20
38 | O=C(Nc1ccc(Cl)cc1)c1cc(Cl)cc2[nH]c(C(F)(F)F)nc12 | 6.89
39 | CN(c1cc(NC(=O)c2cccs2)ccn1)C1CCN(Cc2cccc(F)c2)CC1 | 6.17
40 | Cc1cccc2[nH]c(-c3ccc(-c4cccc(CNCCCNS(C)(=O)=O)c4)s3)nc12 | 5.99
41 | Cc1cc(Br)cnc1CCCCN=C1NC(=O)CN1C | 6.43
42 | Cc1[nH]c2ccccc2c(=O)c1Br | 6.08
43 | N#CCc1ccc(Nc2nccc(Nc3ccc(Oc4ccccc4)cc3)n2)cc1 | 6.09
44 | CC(C)[C@H](NC(=O)c1ccc(O)c(-c2cccc(C(F)(F)F)c2)c1)C(=O)NCCN1CCCCC1 | 6.08
45 | CN(CCCN(C)c1cc(NC(=O)c2ccc(F)cc2)ccn1)Cc1cccc(F)c1 | 5.91
46 | Cc1noc(C)c1-c1ccc2c(Nc3nccc4ccccc34)c(C(N)=O)cnc2c1 | 6.05
47 | Cc1cccc2[nH]c(-c3ccc(-c4ccc(NC(=O)NCc5cccc(F)c5)cc4)s3)nc12 | 6.05
48 | COc1cc(OC)cc(C(=O)Nc2ccc(Nc3nc(C)cc(N(C)C)n3)cc2)c1 | 6.19
49 | Cc1cccc2[nH]c(-c3cccc(-c4ccc(NC(=O)CN5CCN(C)CC5)cc4)c3)nc12 | 6.25
50 | CCC(C)CN1CCN(c2cc(NC(=O)c3cccs3)ccn2)C(C)C1 (configuration not stated) | 6.00

Row | SMILES | pIC50
51 | Nc1ccc(-c2ccc(NC(=O)Nc3ccccc3)cc2)cn1 | 6.04
52 | Cc1ccc(C)c2c1[nH]c1ccc(C3=NCCN3)cc12 | 6.30
53 | Cc1nc(Nc2cc(Cl)ccc2O)nc(Nc2cc(Cl)ccc2O)c1[N+](=O)[O-] | 7.52
54 | O=C(CCC1CCCCC1)NCCNc1cccc2ccccc12 | 6.08
55 | C=CCOC(=O)N1CCC(CNCc2cccc(-c3ccc(-c4nc5c(C)cccc5[nH]4)cc3)c2)C1 (configuration not stated) | 6.60
56 | FC(F)(F)c1ccc2c(NCCCNc3ccnc4cc(C(F)(F)F)ccc34)ccnc2c1 | 7.52
57 | Fc1cccc(Nc2nc(NCc3ccc4ccsc4c3)nc(Nc3cccc(F)c3)n2)c1 | 5.97
58 | CCCCCN1CCCN(Cc2cccc(NC(=O)c3ccc(-c4ccccc4)cc3)c2)CC1 | 6.15
59 | O=C(/C=C/c1ccc(Cl)c(Cl)c1)NCCCCCN1CCC(c2c[nH]c3ccccc23)CC1 | 6.11
60 | O=S(=O)(Nc1cccc(CCN2CCC(N3CCCCC3)CC2)c1)c1ccc(Oc2ccccc2)cc1 | 6.11
61 | COc1ccc2nccc([C@@H](O)CN3CCC(NC(=O)C(c4cc5ccccc5o4)N4CCN(c5ccc(F)cc5)CC4)CC3)c2c1 (some centres not stated) | 6.70
62 | O=C(Nc1ccc(N2CCCN(Cc3cccc(F)c3)CC2)cc1)c1cccs1 | 6.26
63 | COc1cccc2cc(C(=O)N[C@@H](CC(C)C)C(=O)Nc3cc(F)ccc3Br)oc12 | 6.01
64 | O=C(OCC1CCN(Cc2ccccc2)C1)c1ccc(Cl)cc1 (configuration not stated) | 6.17
65 | N#Cc1ccc(NC(=O)c2ccc(Cc3ccc4c(c3)CCN(C3CCC3)CC4)cn2)cc1 | 5.95
66 | CNC(=O)/C=C/c1cc(NC(=O)Nc2ccnc3c(Br)cccc23)ccc1OC | 6.07
67 | Cc1cccc2[nH]c(-c3ccc(-c4ccc(CN5CCCC5CN)cc4)cc3)nc12 (configuration not stated) | 6.09
68 | CCCCCCN1CCC(NCc2cccc(C#N)c2)CC1 | 6.11
69 | Nc1c(Cl)cc(C(O)CNCCCCCOCCCc2ccc(O)c3ncccc23)cc1Cl (configuration not stated) | 6.00
70 | O=S(=O)(NCCN1CCCC1)c1cccc(-c2ccc(CNCc3ccccc3)cc2)c1 | 6.00
71 | O=C(NCCNc1noc(-c2sccc2Br)n1)c1ccc(Cl)cc1 | 5.93
72 | c1cc2nc(CCCCc3nc4ccc(C5=N[C@H]6CCCC[C@H]6N5)cc4[nH]3)[nH]c2cc1C1=N[C@H]2CCCC[C@H]2N1 | 6.39
73 | COc1cccc(CN2Cc3ccccc3OC3(CCN(Cc4c[nH]c5cnccc45)CC3)C2)c1 | 5.89
74 | Cc1c(CC(=O)N(C)C2CCN(CCCCCNC(=O)/C=C/c3ccc(Cl)c(Cl)c3)CC2)sc2ccc(Cl)cc12 | 5.94
75 | CS(=O)(=O)CCNCc1cccc(-c2cc3c(Nc4ccc5c(cnn5Cc5ccccc5)c4)ncnc3s2)c1 | 6.26

Row | SMILES | pIC50
76 | CCCN(Cc1ccc(C)cc1)Cc1cc(=O)c2cc(Cl)ccc2[nH]1 | 5.98
77 | CN(C)CCCSc1ccccc1NC(=O)C=Cc1ccccc1 | 6.02
78 | COc1cc(C(F)(F)F)c2cc(CNCCCNc3nc4ccccc4[nH]3)[nH]c2c1 | 6.51
79 | O=C(/C=C/c1ccc(Cl)c(Cl)c1)NCCCCCN1CCC(c2cn[nH]c2-c2ccccc2)CC1 | 5.91
80 | CN(C)C(=NCCCCCCN=C(/N=C(/N)Nc1ccc(Cl)cc1)N(C)C)/N=C(/N)Nc1ccc(Cl)cc1 | 6.28
81 | O=C(NC1CCN(CCCOc2ccnc3cc(Cl)ccc23)C1)c1ccc(Br)cc1 (configuration not stated) | 5.99
82 | Cc1ccccc1NC(=O)C1CSCN1C(=O)OCc1ccccc1 (configuration not stated) | 6.01
83 | Cc1c(C2CCN(CCCCNC(=O)c3ccc(-c4ccc(C#N)cc4)cc3)CC2)c2ccccc2n1CCO | 6.00
84 | CCOC(=O)Cn1ccc2c(NCc3ccccc3)nc(C)nc21 | 6.43
85 | COc1cc(NCC(O)CNc2cc(OC)c3ccccc3n2)nc2ccccc12 | 6.96
86 | COc1ccc(Cn2c(SCc3ccc(C)cc3)nc3cc(OC)c(OC)cc3c2=N)cc1Cl | 6.01
87 | COc1ccc(C2C(C(=O)Nc3ccc(C)c(F)c3)c3cc(OC)c(OC)cc3C(=O)N2C)cc1 (configuration not stated) | 6.02
88 | O=C(NCc1cccc(C(F)(F)F)c1)C1CCCN(C(=O)c2ccc(O)c(-c3ccc(Cl)c(Cl)c3)c2)C1 (configuration not stated) | 6.10
89 | O=C(/C=C/c1ccc(Cl)c(Cl)c1)NCCCCCCN1CCN(C(=O)Nc2ccc(OC(F)F)cc2)CC1 | 6.17
90 | OCCN1CCN(Cc2cccc(-c3cccc(-c4nc5ccc(F)cc5[nH]4)c3)c2)CC1 | 6.15
91 | CC(C)(CNC(=O)[C@H]1CCCCN1)c1nc(-c2ccc(Cl)c(O)c2)c(-c2ccncc2)[nH]1 | 6.14
92 | N=c1n(CCN2CCCCC2)c2ccccc2n1CC(O)c1ccc(Cl)c(Cl)c1 (configuration not stated) | 6.49
93 | CCN(CC)CCCNc1ncc2c(-c3ccc(NC(=O)Nc4cc(C(F)(F)F)ccc4F)cc3)nn(C)c2n1 | 6.66
94 | Nc1c2c(nc3ccc(C(=O)Nc4ccccc4)cc13)CCCC2 | 6.15
95 | CN1CCN(c2nsc3ccc(-c4ccc(NC(=O)Nc5cc(C(F)(F)F)ccc5F)cc4)cc23)CC1 | 6.62
96 | Oc1ccc(CCCNc2nc(NCc3cccc4ccccc34)nc(N3CCNCC3)n2)cc1 | 6.09
97 | Cc1cc(C)c2nc(N3CCC(C(=O)NCCCN4CCC(N5CCCCC5)CC4)CC3)sc2c1 | 6.08
